Source: PubChem BioAssay AID248 (DTP/NCI, 2004)
Where “and” joins values, the source holds several entries; their conditions need not be identical. Identical values can stand only once. Toxic doses and inconclusive results are not listed. Cut-off read from the data, not from the text of the source: active = T/C of 150% or more; inactive = T/C below 125%.

System: L1210 leukemia ip in BDF1 mice, survival T/C
Assay: NCI In Vivo Anticancer Drug Screen. Data for tumor model L1210 Leukemia (intraperitoneal) in B6D2F1 (BDF1) mice
Conditions: endpoint: mean survival time, higher = longer survival
Procedure, shortened: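 Transplanted-tumor mice were given test agent; controls received vehicle only. Survival readings from the two groups were divided (treated over control).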

[1] = dose: 100.0 mg/kg/injection, schedule: Q01DX009 (ip), vehicle: saline with Tween-80
[2] = dose: 200.0 mg/kg/injection, schedule: Q01DX009 (ip), vehicle: saline with Tween-80
[3] = dose: 400.0 mg/kg/injection, schedule: Q01DX009 (ip), vehicle: saline with Tween-80
[4] = dose: 100.0 mg/kg/injection, schedule: Q01DX001 (ip), vehicle: Klucel (hydroxypropylcellulose) (HPC)
[5] = dose: 200.0 mg/kg/injection, schedule: Q01DX001 (ip), vehicle: Klucel (hydroxypropylcellulose) (HPC)
[6] = dose: 400.0 mg/kg/injection, schedule: Q01DX001 (ip), vehicle: Klucel (hydroxypropylcellulose) (HPC)
[7] = dose: 100.0 mg/kg/injection, schedule: Q04DX003 (ip), vehicle: saline with Tween-80
[8] = dose: 200.0 mg/kg/injection, schedule: Q04DX003 (ip), vehicle: saline with Tween-80
[9] = dose: 400.0 mg/kg/injection, schedule: Q04DX003 (ip), vehicle: saline with Tween-80
[10] = dose: 100.0 mg/kg/injection, schedule: Q04DX003 (ip), vehicle: Klucel (hydroxypropylcellulose) (HPC)
[11] = dose: 200.0 mg/kg/injection, schedule: Q04DX003 (ip), vehicle: Klucel (hydroxypropylcellulose) (HPC)
[12] = dose: 400.0 mg/kg/injection, schedule: Q04DX003 (ip), vehicle: Klucel (hydroxypropylcellulose) (HPC)
[13] = dose: 100.0 mg/kg/injection, schedule: Q04DX002 (ip), vehicle: Klucel (hydroxypropylcellulose) (HPC)

Measured: T/C

Cn1ncc(C(=O)O)c1N
inactive: dose: 25.0 mg/kg/injection, schedule: Q01DX009 (ip), vehicle: saline with Tween-80 102 % of control | dose: 50.0 mg/kg/injection, schedule: Q01DX009 (ip), vehicle: saline with Tween-80 111 % of control | [1] 100 % of control | [2] 94 % of control | [3] 96 % of control

O=S(NOCc1ccccc1)c1ccc(Cl)cc1 (stereo not drawn)
inactive: dose: 100.0 mg/kg/injection, schedule: Q01DX009 (ip), vehicle: Klucel (hydroxypropylcellulose) (HPC) 93 % of control | dose: 200.0 mg/kg/injection, schedule: Q01DX009 (ip), vehicle: Klucel (hydroxypropylcellulose) (HPC) 102 % of control | dose: 400.0 mg/kg/injection, schedule: Q01DX009 (ip), vehicle: Klucel (hydroxypropylcellulose) (HPC) 93 % of control

CN1CN(c2ccccc2)C2(CCN(CCC3Oc4ccccc4O3)CC2)C1=O
inactive: [4] 102 % of control | [5] 98 % of control | [6] 103 % of control

Cn1cc(C(C)(C(=O)O)c2cn(C)c3ccccc23)c2ccccc21
inactive: dose: 100.0 mg/kg/injection, schedule: Q01DX001 (ip), vehicle: saline 104 % of control | dose: 200.0 mg/kg/injection, schedule: Q01DX001 (ip), vehicle: saline 102 % of control | dose: 400.0 mg/kg/injection, schedule: Q01DX001 (ip), vehicle: saline 102 % of control

CC/C(C)=N\NC(=O)c1cccnc1
inactive: dose: 100.0 mg/kg/injection, schedule: Q01DX009 (ip), vehicle: saline 110 % of control | dose: 200.0 mg/kg/injection, schedule: Q01DX009 (ip), vehicle: saline 110 % of control

NC(=S)N/N=C/c1ccc(Br)s1
inactive: dose: 100.0 mg/kg/injection, schedule: Q01DX001 (ip), vehicle: carboxymethylcellulose (CMC) 87 % of control | dose: 200.0 mg/kg/injection, schedule: Q01DX001 (ip), vehicle: carboxymethylcellulose (CMC) 100 % of control

COc1cc(/C=N\N=C\c2cc(OC)c(OC)c(OC)c2)cc(OC)c1OC
inactive: [1] 96 % of control | [7] 97 % of control | [2] 96 % of control | [8] 92 % of control | [3] 92 % of control | [9] 92 % of control

OCCc1cc2ccccc2s1
inactive: [10] 107 % of control | [11] 103 % of control | [12] 113 % of control

[O]=[Zr]
inactive: dose: 25.0 mg/kg/injection, schedule: Q04DX003 (ip), vehicle: Klucel (hydroxypropylcellulose) (HPC) 90 % of control | dose: 50.0 mg/kg/injection, schedule: Q04DX003 (ip), vehicle: Klucel (hydroxypropylcellulose) (HPC) 88 % of control | [10] 88 % of control

NC(=S)N/N=C\c1c[nH]c2nccnc12
inactive: dose: 25.0 mg/kg/injection, schedule: Q01DX009 (ip), vehicle: water 108 % of control | dose: 50.0 mg/kg/injection, schedule: Q01DX009 (ip), vehicle: water 97 % of control | dose: 100.0 mg/kg/injection, schedule: Q01DX009 (ip), vehicle: water 102 % of control | dose: 200.0 mg/kg/injection, schedule: Q01DX009 (ip), vehicle: water 90 % of control | dose: 400.0 mg/kg/injection, schedule: Q01DX009 (ip), vehicle: water 88 % of control

Nc1ccc(Nc2ccccc2)c(N)c1
inactive: dose: 50.0 mg/kg/injection, schedule: Q01DX009 (ip), vehicle: saline 98 % of control | dose: 75.0 mg/kg/injection, schedule: Q01DX009 (ip), vehicle: saline 102 % of control | dose: 75.0 mg/kg/injection, schedule: Q04DX003 (ip), vehicle: saline 103 % of control | dose: 150.0 mg/kg/injection, schedule: Q04DX003 (ip), vehicle: saline 96 % of control

Nc1ccnc(SCc2ccc(Cl)cc2)n1
inactive: dose: 100.0 mg/kg/injection, schedule: Q04DX003 (ip), vehicle: gum acacia 105 % of control | dose: 200.0 mg/kg/injection, schedule: Q04DX003 (ip), vehicle: gum acacia 104 % of control | dose: 400.0 mg/kg/injection, schedule: Q04DX003 (ip), vehicle: gum acacia 98 % of control

CC(=O)Nc1cccc(Cc2ccccc2)c1
inactive: [4] 95 % of control | [10] 100 % of control | [5] 97 % of control | [11] 103 % of control | [6] 97 % of control | [12] 108 % of control

O=C(O)C1Cc2ccccc21 (stereo not drawn)
inactive: dose: 25.0 mg/kg/injection, schedule: Q04DX002 (ip), vehicle: Klucel (hydroxypropylcellulose) (HPC) 96 % of control | dose: 50.0 mg/kg/injection, schedule: Q04DX002 (ip), vehicle: Klucel (hydroxypropylcellulose) (HPC) 96 % of control | [13] 92 % of control

O=C(CCCl)OCC#CCOC(=O)CCCl
inactive: [1] 101 % of control | [2] 94 % of control

O/N=C/c1ccc2ccccc2n1
inactive: dose: 18.75 mg/kg/injection, schedule: Q01DX009 (ip), vehicle: Klucel (hydroxypropylcellulose) (HPC) 105 % of control | dose: 18.75 mg/kg/injection, schedule: Q04DX003 (ip), vehicle: Klucel (hydroxypropylcellulose) (HPC) 97 % of control | dose: 37.5 mg/kg/injection, schedule: Q01DX009 (ip), vehicle: Klucel (hydroxypropylcellulose) (HPC) 100 % of control | dose: 37.5 mg/kg/injection, schedule: Q04DX003 (ip), vehicle: Klucel (hydroxypropylcellulose) (HPC) 103 % of control | dose: 75.0 mg/kg/injection, schedule: Q01DX009 (ip), vehicle: Klucel (hydroxypropylcellulose) (HPC) 113 % of control | dose: 75.0 mg/kg/injection, schedule: Q04DX003 (ip), vehicle: Klucel (hydroxypropylcellulose) (HPC) 97 % of control and 103 % of control

c1ccc([CH2][Ge]([c]2ccccc2)([c]2ccccc2)[c]2ccccc2)cc1
inactive: dose: 25.6 mg/kg/injection, schedule: Q04DX002 (ip), vehicle: saline with Tween-80 89 % of control | dose: 64.0 mg/kg/injection, schedule: Q04DX002 (ip), vehicle: saline with Tween-80 93 % of control | [7] 104 % of control | dose: 160.0 mg/kg/injection, schedule: Q04DX002 (ip), vehicle: saline with Tween-80 89 % of control | [8] 96 % of control | dose: 400.0 mg/kg/injection, schedule: Q04DX002 (ip), vehicle: saline with Tween-80 89 % of control | [9] 102 % of control

CC(=O)C(C)(c1ccccc1)N(Cc1ccccc1)C(=O)c1ccccc1 (stereo not drawn)
inactive: dose: 100.0 mg/kg/injection, schedule: Q04DX003 (ip), vehicle: other 93 % of control | dose: 200.0 mg/kg/injection, schedule: Q04DX003 (ip), vehicle: other 108 % of control | dose: 400.0 mg/kg/injection, schedule: Q04DX003 (ip), vehicle: other 92 % of control

CC(=O)NC1CCCCC1
inactive: [7] 95 % of control | [8] 98 % of control | [9] 92 % of control

CCCCCCNC(=O)c1cccc(C(=O)NCCCCCC)c1
inactive: [13] 88 % of control | dose: 200.0 mg/kg/injection, schedule: Q04DX002 (ip), vehicle: Klucel (hydroxypropylcellulose) (HPC) 94 % of control | dose: 400.0 mg/kg/injection, schedule: Q04DX002 (ip), vehicle: Klucel (hydroxypropylcellulose) (HPC) 98 % of control

CCOC(=O)NC(CI)(c1ccccc1)c1ccccc1
inactive: dose: 75.0 mg/kg/injection, schedule: Q01DX001 (ip), vehicle: saline 98 % of control | dose: 150.0 mg/kg/injection, schedule: Q01DX001 (ip), vehicle: saline 97 % of control | dose: 300.0 mg/kg/injection, schedule: Q01DX001 (ip), vehicle: saline 92 % of control

CCCC[S][Pb]([CH2]C)([CH2]C)[CH2]C
inactive: dose: 1.56 mg/kg/injection, schedule: Q01DX009 (sc), vehicle: olive oil, sesame oil, peanut oil 103 % of control | dose: 3.12 mg/kg/injection, schedule: Q01DX009 (sc), vehicle: olive oil, sesame oil, peanut oil 99 % of control | dose: 6.25 mg/kg/injection, schedule: Q01DX009 (sc), vehicle: olive oil, sesame oil, peanut oil 96 % of control and 100 % of control | dose: 12.5 mg/kg/injection, schedule: Q04DX002 (ip), vehicle: saline with Tween-80 111 % of control | dose: 25.0 mg/kg/injection, schedule: Q04DX002 (ip), vehicle: saline with Tween-80 96 % of control
